Results as given in article PMC10794188, “Structure-based development of 3,5-dihydroxybenzoyl-hydrazineylidene as tyrosinase inhibitor; in vitro and in silico study” (Scientific Reports, 2024).
Read-outs that look alike come from different tables or passages of the source.

How the values were obtained:
mushroom tyrosinase = conditions: cited from earlier work
tyrosinase [1] = test: Tyrosinase inhibitory assay (colorimetric, L-DOPA substrate); format: biochemical; conditions: for IC50: read-out: IC50 (µM) ± RSD
Method: The tyrosinase inhibitory activities of derivatives were performed according to the previously reported procedures[26],[27]. All the test samples were first dissolved in DMSO at dilution to the required final concentrations. Initially, in a 96-well microplate, 10 µl of test samples were added to 160 µl of phosphate buffer (pH = 6.8), and then 10 µl tyrosinase was added. After the mixture was pre-incubated at 28 °C for 20 min, 20 µl of L-DOPA solution was added. DMSO without test compounds was used as the control, and kojic acid was used as a positive control. After 8 min incubation absorbance of samples was measured at 490 nm. Each assay was conducted as three separate replicates.

tyrosinase [2] = test: Enzyme kinetic study (Lineweaver–Burk, L-DOPA); format: biochemical
Description: The Lineweaver–Burk reciprocal plot was provided by plotting 1/V against 1/[S] at variable concentrations of the L-DOPA.

skin melanoma cells = system: skin melanoma cells; design: method as in PMID 34140181; conditions: 8 µM; cited from earlier work

In the case of `O=C(/C=C/c1ccc(O)cc1)c1cc(O)cc(O)c1` [A], the IC50 (mushroom tyrosinase) is given as 8.1 µM.
With `O=C(Cn1cc(COc2ccc(C=NNC(=O)c3cc(O)cc(O)c3)cc2)nn1)Nc1ccccc1` [Compound 11a, 2-(4-((4-((2-(3,5-dihydroxybenzoyl)hydrazineylidene)methyl)phenoxy)methyl)-1H-1,2,3-triazol-1-yl)-N-phenylacetamide] the “% inhibition at 100 µM” value (tyrosinase [1]) was 53.87 ± 1.53% and the IC50 (tyrosinase [1]) was 90.5 µM.
In the case of `O=C(Cn1cc(COc2ccc(C=NNC(=O)c3cc(O)cc(O)c3)cc2)nn1)Nc1ccccc1F` [Compound 11b, 2-(4-((4-((2-(3,5-dihydroxybenzoyl)hydrazono)methyl)phenoxy)methyl)-1H-1,2,3-triazol-1-yl)-N-(2-fluorophenyl)acetamide], the “% inhibition at 100 µM” value (tyrosinase [1]) is reported as 22.99 ± 1.20%.
For `O=C(Cn1cc(COc2ccc(C=NNC(=O)c3cc(O)cc(O)c3)cc2)nn1)Nc1ccc(F)cc1` [Compound 11c, 2-(4-((4-((2-(3,5-dihydroxybenzoyl)hydrazono)methyl)phenoxy)methyl)-1H-1,2,3-triazol-1-yl)-N-(4-fluorophenyl)acetamide], the “% inhibition at 100 µM” value (tyrosinase [1]) was 32.28 ± 2.76%.
With `O=C(Cn1cc(COc2ccc(C=NNC(=O)c3cc(O)cc(O)c3)cc2)nn1)Nc1ccc(Cl)cc1` [Compound 11d, N-(4-chlorophenyl)-2-(4-((4-((2-(3,5-dihydroxybenzoyl)hydrazineylidene)methyl)phenoxy)methyl)-1H-1,2,3-triazol-1-yl)Acetamide] the “% inhibition at 100 µM” value (tyrosinase [1]) was 22.82 ± 0.53%.
In the case of `O=C(Cn1cc(COc2ccc(C=NNC(=O)c3cc(O)cc(O)c3)cc2)nn1)Nc1ccc(Br)cc1` [Compound 11e, N-(4-bromophenyl)-2-(4-((4-((2-(3,5-dihydroxybenzoyl)hydrazono)methyl)phenoxy)methyl)-1H-1,2,3-triazol-1-yl)acetamide], the “% inhibition at 100 µM” value (tyrosinase [1]) is reported as 14.13 ± 2.31%.
For `O=C(Cn1cc(COc2ccc(C=NNC(=O)c3cc(O)cc(O)c3)cc2)nn1)Nc1ccc(Cl)cc1Cl` [Compound 11f, N-(2,4-dichlorophenyl)-2-(4-((4-((2-(3,5-dihydroxybenzoyl)hydrazineylidene)methyl)phenoxy)methyl)-1H-1,2,3-triazol-1-yl)acetamide], the “% inhibition at 100 µM” value (tyrosinase [1]) was 19.54 ± 2.48%.
With `O=C(Cn1cc(COc2ccc(C=NNC(=O)c3cc(O)cc(O)c3)cc2)nn1)Nc1c(Cl)cccc1Cl` [Compound 11g, N-(2,6-dichlorophenyl)-2-(4-((4-((2-(3,5-dihydroxybenzoyl)hydrazineylidene)methyl)phenoxy)methyl)-1H-1,2,3-triazol-1-yl)Acetamide] the “% inhibition at 100 µM” value (tyrosinase [1]) was 27.87 ± 1.83%.
In the case of `O=C(Cn1cc(COc2ccc(C=NNC(=O)c3cc(O)cc(O)c3)cc2)nn1)Nc1ccc([N+](=O)[O-])cc1` [Compound 11h, 2-(4-((4-((2-(3,5-dihydroxybenzoyl)hydrazineylidene)methyl)phenoxy)methyl)-1H-1,2,3-triazol-1-yl)-N-(4-nitrophenyl)Acetamide], the “% inhibition at 100 µM” value (tyrosinase [1]) is reported as 22.74 ± 2.86%.
With `Cc1cc([N+](=O)[O-])ccc1NC(=O)Cn1cc(COc2ccc(C=NNC(=O)c3cc(O)cc(O)c3)cc2)nn1` [Compound 11i, 2-(4-((4-((2-(3,5-dihydroxybenzoyl)hydrazineylidene)methyl)phenoxy)methyl)-1H-1,2,3-triazol-1-yl)-N-(2-methyl-4-nitrophenyl)acetamide] the “% inhibition at 100 µM” value (tyrosinase [1]) was 15.05 ± 2.29%.
With `Cc1ccc(NC(=O)Cn2cc(COc3ccc(C=NNC(=O)c4cc(O)cc(O)c4)cc3)nn2)cc1` [Compound 11j, 2-(4-((4-((2-(3,5-dihydroxybenzoyl)hydrazono)methyl)phenoxy)methyl)-1H-1,2,3-triazol-1-yl)-N-(p-tolyl)acetamide] the “% inhibition at 100 µM” value (tyrosinase [1]) was 15.22 ± 4.33%.
For `Cc1cccc(C)c1NC(=O)Cn1cc(COc2ccc(C=NNC(=O)c3cc(O)cc(O)c3)cc2)nn1` [Compound 11k, 2-(4-((4-((2-(3,5-dihydroxybenzoyl)hydrazineylidene)methyl)phenoxy)methyl)-1H-1,2,3-triazol-1-yl)-N-(2,6-dimethylphenyl)Acetamide], the “% inhibition at 100 µM” value (tyrosinase [1]) was 38.59 ± 0.74%.
With `CCc1ccc(NC(=O)Cn2cc(COc3ccc(C=NNC(=O)c4cc(O)cc(O)c4)cc3)nn2)cc1` [Compound 11l, 2-(4-((4-((2-(3,5-dihydroxybenzoyl)hydrazineylidene)methyl)phenoxy)methyl)-1H-1,2,3-triazol-1-yl)-N-(4-ethylphenyl)acetamide] the “% inhibition at 100 µM” value (tyrosinase [1]) was 55.52 ± 4.63% and the IC50 (tyrosinase [1]) was 87.5 µM.
In the case of `COc1ccc(NC(=O)Cn2cc(COc3ccc(C=NNC(=O)c4cc(O)cc(O)c4)cc3)nn2)cc1` [Compound 11m, 2-(4-((4-((2-(3,5-dihydroxybenzoyl)hydrazineylidene)methyl)phenoxy)methyl)-1H-1,2,3-triazol-1-yl)-N-(4-methoxyphenyl)acetamide], the “% inhibition at 100 µM” value (tyrosinase [1]) is reported as 78.81 ± 7.35%, the IC50 (tyrosinase [1]) is reported as 55.4 µM and the mode of inhibition (tyrosinase [2]; Lineweaver–Burk plot) is reported as “competitive”. For the same compound, the Ki (tyrosinase [2]; secondary plot of Km vs inhibitor concentration, L-DOPA, read-out: dissociation constant Ki) was 52.8 µM.
In the case of `O=C(Cn1cc(COc2ccc(C=NNC(=O)c3cc(O)cc(O)c3)cc2)nn1)NCc1ccccc1` [Compound 11n, N-benzyl-2-(4-((4-((2-(3,5-dihydroxybenzoyl)hydrazineylidene)methyl)phenoxy)methyl)-1H-1,2,3-triazol-1-yl)acetamide], the “% inhibition at 100 µM” value (tyrosinase [1]) is reported as 17.48 ± 1.79%.
In the case of `CCOc1cc(/C=N/NC(=O)c2ccc(O)c(OC)c2)ccc1O` [Compound C], the IC50 (mushroom tyrosinase) is listed as 1.58 µM.
In the case of `O=C(N/N=C/c1ccc(Cl)cc1)c1ccc(O)cc1` [Compound E], the IC50 (mushroom tyrosinase) is given as 7.57 ± 0.01 µM.
In the case of `Clc1ccc(Cn2cc(COc3ccc(-c4nc5ccccc5[nH]4)cc3)nn2)cc1Cl` [Compound F], the IC50 (mushroom tyrosinase) is listed as 9.42 µM.
In the case of `O=C1NC(=O)C(=Cc2ccc(OCc3cn(Cc4ccccc4Cl)nn3)cc2)C(=O)N1` [Compound G], the IC50 (mushroom tyrosinase) is given as 29.9 µM.
In the case of `NC(=S)N/N=C/c1ccc(OCc2cn(CC(=O)NCc3ccccc3)nn2)cc1` [Compound H], the IC50 (mushroom tyrosinase; L-DOPA as substrate) is listed as 0.17 µM, the IC50 (mushroom tyrosinase; L-tyrosine as substrate) is listed as 0.11 µM and the melanin content (skin melanoma cells) is listed as 39.8%.
For `CC(=O)c1cccc(NC(=O)COC(=O)/C=C/c2ccc(O)cc2O)c1` [D], the IC50 (mushroom tyrosinase) is listed as 0.002 µM.
With `O=c1cc(CO)occ1O` [Kojic acid, reference compound] the “% inhibition at 100 µM” value (tyrosinase [1]) was 23.64 ± 2.56%.
